The values below come from US20250051347A1, “BIFUNCTIONAL CHIMERIC HETEROCYCLIC COMPOUND AND USE THEREOF AS ANDROGEN RECEPTOR DEGRADER” (Hinova Pharmaceuticals, Inc., priority 2021, published 2025).

The DC50 is the midpoint of the concentration-degradation curve. As usually defined, the IC50 is the midpoint of a concentration-inhibition curve.

The target in data set [1] is T1, androgen receptor (AR) splicing variant AR-v7 (Homo sapiens, UniProt P10275).
T1 construct: The degradation activity of compounds on AR-v7 in 22RV1 cells; host or cells: 22RV1 cells
T1 sequence (P10275 1-644 isoform P10275-3): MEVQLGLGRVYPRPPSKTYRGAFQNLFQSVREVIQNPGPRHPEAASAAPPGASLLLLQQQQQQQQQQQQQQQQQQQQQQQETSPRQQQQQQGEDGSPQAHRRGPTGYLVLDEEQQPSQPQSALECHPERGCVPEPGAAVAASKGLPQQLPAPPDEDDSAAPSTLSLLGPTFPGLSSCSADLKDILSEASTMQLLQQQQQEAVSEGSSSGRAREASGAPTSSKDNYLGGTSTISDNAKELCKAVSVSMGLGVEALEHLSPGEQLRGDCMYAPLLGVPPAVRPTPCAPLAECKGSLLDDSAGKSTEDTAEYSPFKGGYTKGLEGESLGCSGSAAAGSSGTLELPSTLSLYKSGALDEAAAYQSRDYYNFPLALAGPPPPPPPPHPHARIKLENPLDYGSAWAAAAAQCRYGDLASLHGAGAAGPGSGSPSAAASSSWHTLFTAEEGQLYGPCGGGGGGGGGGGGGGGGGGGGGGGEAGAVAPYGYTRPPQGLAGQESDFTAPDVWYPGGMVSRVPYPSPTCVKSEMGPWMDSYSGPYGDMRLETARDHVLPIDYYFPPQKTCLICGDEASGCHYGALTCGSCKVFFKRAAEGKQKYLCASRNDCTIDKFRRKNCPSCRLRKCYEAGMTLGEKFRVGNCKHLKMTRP
The data set can be described thus: Degradation activity on androgen receptor splicing variant AR-v7 in 22RV1 cells (ELISA). The class given is cell-based. The conditions noted are these: AR-v7 degradation in 22RV1 cells, 48 h, class symbols. A general note: ELISA stands for enzyme-linked immunosorbent assay.

Data set [2] is described as follows: Pharmacokinetics in mice (plasma exposure after oral administration). The class given is in vivo. The conditions noted are these: mouse, ICR mice, oral (i.g.) 3 mg/kg, read-out: After oral administration of 3 mg/kg, mouse plasma exposure AUCinf.
For data set [3], the system named is 22RV1 cells. The conditions noted are these: Homo sapiens, 22Rv1, 144 h, read-out: 22RV1 IC50 (nM), 22RV1 cells, 6 days culture, CCK-8, OD 450 nm.
Experimental: • 22RV1 cell lines (Cobioer, CBP6034) • Penicillin-Streptomycin (Hyclone, Cat. No. SV30010) • Cell counting kit-8 (Signalway Antibody, Cat. No. CP002)
Then, two wells were set for each concentration. 20 μL of the diluted compound solution was added to the cell culture well, and then the plate was gently shaken to mix. In addition, the experiment included 3 negative control wells only containing cells and 3 blank control wells only containing culture medium.

In turn, `CC(C)(c1ccc(Oc2ccnc(N3CC4(COC4)C3)n2)cc1)c1ccc(OC2CC(Nc3ccc4c(c3)C(=O)N(C3CCC(=O)NC3=O)C4=O)C2)cc1` (stereo not drawn) [Example 240, 5-((3-(4-(2-(4-((2-(2-oxa-6-azaspiro[3.3]heptan-6-yl)pyrimidin-4-yl)oxy)phenyl)propan-2-yl)phenoxy)cyclobutyl)amino)-2-(2,6-dioxopiperidin-3-yl)isoindolin-1,3-dione] showed a DC50 in data set [1] of under 10 nM. In addition, the AUC(0-inf) in data set [2] was 1000 to 5000 ng·h/mL. In data set [3], the IC50 amounted to 12 nM.

As to `O=C1CCC(N2C(=O)c3ccc(N[C@H]4C[C@@H](Oc5ccc(C6(c7ccc(OCc8ccnc(N9CC%10(COC%10)C9)n8)cc7)CCC6)cc5)C4)cc3C2=O)C(=O)N1` (stereo partly drawn) [Example 359, 5-(((1s,3s)-3-(4-(1-(4-((2-(2-oxa-6-azaspiro[3.3]heptane-6-yl)pyrimidin-4-yl)methoxy)phenyl)cyclobutyl)phenoxy)cyclobutyl)amino)-2-(2,6-dioxopiperidin-3-yl)isoindolin-1,3-dione], the DC50 in data set [1] was under 10 nM. Moreover, the AUC(0-inf) in data set [2] lay within 1000 to 5000 ng·h/mL. Further, the IC50 in data set [3] stood at 6 nM.

`CC(C)(c1ccc(OCc2ccnc(N3CC4(CCO4)C3)n2)cc1)c1ccc(O[C@H]2C[C@@H](Nc3ccc4c(c3)C(=O)N(C3CCC(=O)NC3=O)C4=O)C2)cc1` (stereo partly drawn) [Example 196] yielded a DC50 in data set [1] of under 10 nM. Also, the AUC(0-inf) in data set [2] is 1000 to 5000 ng·h/mL. The IC50 in data set [3] was determined as 10 nM.

For the molecule `CC(C)(c1ccc(OCc2ccnc(N3CC4(COC4)C3)n2)cc1)c1ccc(O[C@H]2C[C@@H](Nc3ccc4c(c3)C(=O)N(C3CCC(=O)NC3=O)C4=O)C2)cc1` (stereo partly drawn) [Example 76, 5-(((1s,3s)-3-(4-(2-(4-((2-(2-oxa-6-azaspiro[3.3]heptane-6-yl)pyrimidin-4-yl)methoxy)phenyl)propan-2-yl)phenoxy)cyclobutyl)amino)-2-(2,6-dioxopiperidin-3-yl)isoindolin-1,3-dione], the 50% degradation concentration (DC50) in data set [1] was under 10 nM. Besides, the AUC(0-inf) in data set [2] was in the range of 1000 to 5000 ng·h/mL. Besides, the IC50 in data set [3] came out at 11 nM.

`Cc1nc(-c2ccnc(Oc3ccc(C(C)(C)c4ccc(O[C@H]5C[C@H](Nc6ccc7c(c6)C(=O)N(C6CCC(=O)NC6=O)C7=O)C5)cc4)cc3)n2)no1` (stereo partly drawn) [Example 166] registered a DC50 in data set [1] of under 10 nM. Besides, in data set [2], the AUC(0-inf) was in the range of 5000 to 30000 ng·h/mL. For the same molecule, the IC50 in data set [3] turned out to be 6 nM.

As to `Cc1nc(-c2nccc(COc3ccc(C(C)(C)c4ccc(O[C@H]5C[C@H](Nc6ccc7c(c6)C(=O)N(C6CCC(=O)NC6=O)C7=O)C5)cc4)cc3)n2)no1` (stereo partly drawn) [Example 279], in data set [1], the DC50 is under 10 nM. Moreover, in data set [2], the AUC(0-inf) is 5000 to 30000 ng·h/mL. For the same molecule, the IC50 in data set [3] is 4 nM.

`CC(C)(c1ccc(CN2CC(Nc3ccc4c(c3)C(=O)N(C3CCC(=O)NC3=O)C4=O)C2)cc1)c1ccc(OCc2ccnc(N3CC4(COC4)C3)n2)cc1` (stereo not drawn) [Example 502] came in with a 50% degradation concentration (DC50) in data set [1] of under 10 nM. In addition, the AUC(0-inf) in data set [2] is 1000 to 5000 ng·h/mL. Further, the IC50 in data set [3] came out at 12 nM.

Consider `Cc1nc(-c2ncc(Oc3ccc(C4(c5ccc(O[C@H]6C[C@H](Nc7ccc8c(c7)C(=O)N(C7CCC(=O)NC7=O)C8=O)C6)cc5)CC4)cc3)cn2)no1` (stereo partly drawn) [Example 212], for which the DC50 in data set [1] was under 10 nM. Besides, the AUC(0-inf) in data set [2] was in the range of 5000 to 30000 ng·h/mL. Also, in data set [3], the IC50 was found to be 14 nM.

For the molecule `CC(C)(c1ccc(OCc2ccnc(N3CC4(COC4)C3)n2)cc1)c1ccc(O[C@H]2C[C@H](Nc3ccc4c(c3)C(=O)N(C3CCC(=O)NC3=O)C4=O)C2)cc1` (stereo partly drawn) [Example 75], the DC50 in data set [1] was under 10 nM. Besides, the AUC(0-inf) in data set [2] lay in the range of 5000 to 30000 ng·h/mL. The IC50 in data set [3] is 8 nM.

In data set [1], `CN1CCC(Nc2nccc(COc3ccc(C(C)(C)c4ccc(O[C@H]5C[C@H](Nc6ccc7c(c6)C(=O)N(C6CCC(=O)NC6=O)C7=O)C5)cc4)cc3)n2)CC1` (stereo partly drawn) [Example 232] came in with a DC50 of under 10 nM. In data set [2], the AUC(0-inf) lay within 100 to 1000 ng·h/mL. The IC50 in data set [3] worked out at 8 nM.

Consider `CC(C)(c1ccc(Oc2ccc(-n3nccn3)nn2)cc1)c1ccc(O[C@H]2C[C@H](Nc3ccc4c(c3)C(=O)N(C3CCC(=O)NC3=O)C4=O)C2)cc1` (stereo partly drawn) [Example 324], for which the DC50 in data set [1] is under 10 nM. Besides, the AUC(0-inf) in data set [2] lay within 5000 to 30000 ng·h/mL. The IC50 in data set [3] came to 4 nM.
